Results taken from patent EP4582418A1, “CRYSTALLINE FORM OF QUINOLINE DERIVATIVE INHIBITOR, PREPARATION METHOD THEREFOR AND USE THEREOF” (TransThera Sciences (Nanjing), Inc., priority 2022, dated 2024).

Assay: Solubility in FaSSIF (pH 6.5) and FeSSIF (pH 5.0) buffer solutions
Assay type: physicochemical
Experimental: Test substances: the crystal forms I, II, III, and IV of the methanesulfonate of the compound of formula (I).
• 1) 0.42 g of NaOH, 3.44 g of anhydrous NaH2PO4, and 6.19 g of NaCl were dissolved in about 0.9 L of pure water; • 2) the pH was adjusted to 6.5 using 1 N NaOH or 1 N HCl, and the buffer solution was supplemented to the volume of 1 L with pure water at room temperature; • 3) 2.24 g of FaSSIF powder was added to about 0.5 L of the buffer solution, and the mixture was stirred until the powder was completely dissolved; the resulting solution was supplemented to the volume of 1 L with the buffer solution at room temperature, and after being left to stand for 2 h, it was ready for use.
• 1) 4.04 g of NaOH, 8.65 g of glacial acetic acid, and 11.87 g of NaCl were dissolved in about 0.9 L of pure water; • 2) the pH was adjusted to 5.0 using 1 N NaOH or 1 N HCl, and the buffer solution was supplemented to the volume of 1 L with pure water at room temperature; • 3) 11.2 g of FeSSIF powder was added to about 0.5 L of the buffer solution, and the mixture was stirred until the powder was completely dissolved; the resulting solution was supplemented to the volume of 1 L with the buffer solution at room temperature, and after being left to stand for 2 h, it was ready for use.
An appropriate amount of each test substance was placed into separate 10 mL PE tubes, and FaSSIF (pH 6.5) buffer solution and FeSSIF (pH 5.0) buffer solution, each 10 mL, were added into the tubes, respectively. The tubes were then placed in a constant temperature water bath shaker and shaken at 37 °C for 24 h. After 24 h, samples were collected and centrifuged. The supernatants were diluted, and the solubility of the supernatants was measured.

## COc1cc2nccc(Oc3ccc(NC(=O)c4nn(C(C)C)cc(-c5ccc(F)cc5)c4=O)nc3)c2cc1OC [Crystal form I, N-(5-((6,7-dimethoxyquinolin-4-yl)oxy)pyridin-2-yl)-5-(4-fluorophenyl)-1-isopropyl-4-oxo-1,4-dihydropyridazine-3-carboxamide]
FaSSIF (pH 6.5), 37 °C, shaken 24 h
  24-hour solubility in buffer solutions with different pH values pH6.5: 0.052 mg/mL
FeSSIF (pH 5.0), 37 °C, shaken 24 h
  24-hour solubility in buffer solutions with different pH values pH5.0: 0.29 mg/mL
Test solutions at pH 5.0 and pH 6.5
  solubility compared with the compound of formula (I): significantly improved
